According to patent US20240116910A1, “Heterocycles as WIP1 Inhibitors” (PMV Pharmaceuticals, Inc., priority 2022, published 2024):

Molecular target: recombinant His-tag Wip1(2-420) protein (amino acids #2-420) (Homo sapiens (Human), UniProt O15297)
Experiment: Wip1(2-420) phosphatase enzyme FDP assay
Format: biochemical
Conditions: fluorescein diphosphate (FDP) substrate, RT 2 hours, fluorescence Ex485/Em535; read-out: WIP1 (Truncated 2-420) FDP Assay: IC50

Chain of recombinant His-tag Wip1(2-420) protein (amino acids #2-420) (O15297 2-420): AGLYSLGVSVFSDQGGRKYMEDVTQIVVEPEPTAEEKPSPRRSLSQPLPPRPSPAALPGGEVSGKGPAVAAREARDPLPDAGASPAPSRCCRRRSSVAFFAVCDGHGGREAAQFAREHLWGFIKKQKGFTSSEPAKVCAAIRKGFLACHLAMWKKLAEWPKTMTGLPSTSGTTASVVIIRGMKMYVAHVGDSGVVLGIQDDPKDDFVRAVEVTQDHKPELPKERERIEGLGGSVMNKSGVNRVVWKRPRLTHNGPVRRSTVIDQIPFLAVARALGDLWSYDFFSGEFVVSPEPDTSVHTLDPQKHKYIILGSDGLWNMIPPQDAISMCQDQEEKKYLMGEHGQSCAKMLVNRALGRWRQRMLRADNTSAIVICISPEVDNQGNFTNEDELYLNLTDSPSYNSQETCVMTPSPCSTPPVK

Row | IC50 [nM] | Compound
1 | 5 | Cc1ncc(Cl)cc1N[C@@H](C)c1ccc(C(=O)N[C@@H](CC2CCCC2)C(=O)Nc2ccnc(O)c2)s1 [Compound 139, (2S)-2-({5-[(1S)-1-[(5-chloro-2-methylpyridin-3-yl)amino]ethyl]thiophen-2-yl}formamido)-3-cyclopentyl-N-(2-hydroxypyridin-4-yl)propanamide]
2 | 402 | Cc1ncc(Cl)cc1N[C@@H](C)c1ccc(C(=O)N[C@H](CC2CCCC2)C(=O)Nc2ccnc(O)c2)s1 [Compound 140, (2R)-2-({5-[(1S)-1-[(5-chloro-2-methylpyridin-3-yl)amino]ethyl]thiophen-2-yl}formamido)-3-cyclopentyl-N-(2-hydroxypyridin-4-yl)propanamide]
3 | 5 | Cc1ncc(Cl)cc1N[C@@H](C)c1ccc(C(=O)N[C@@H](CC2CCCC2)C(=O)Nc2cnn(CCF)c2)s1 [Compound 141, (2S)-2-({5-[(1S)-1-[(5-chloro-2-methylpyridin-3-yl)amino]ethyl]thiophen-2-yl}formamido)-3-cyclopentyl-N-[1-(2-fluoroethyl)-1H-pyrazol-4-yl]propanamide]
4 | 2500 | Cc1ncc(Cl)cc1N[C@@H](C)c1ccc(C(=O)N[C@H](CC2CCCC2)C(=O)Nc2ccnc(Cl)c2)s1 [Compound 142, (2R)-2-({5-[(1S)-1-[(5-chloro-2-methylpyridin-3-yl)amino]ethyl]thiophen-2-yl}formamido)-N-(2-chloropyridin-4-yl)-3-cyclopentylpropanamide]
5 | 5 | Cc1ncc(Cl)cc1N[C@@H](C)c1ccc(C(=O)N[C@@H](CC2CCCC2)C(=O)Nc2ccnc(Cl)c2)s1 [Compound 143, (2S)-2-({5-[(1S)-1-[(5-chloro-2-methylpyridin-3-yl)amino]ethyl]thiophen-2-yl}formamido)-N-(2-chloropyridin-4-yl)-3-cyclopentylpropanamide]
6 | 6 | Cc1ncc(Cl)cc1N[C@@H](C)c1ccc(C(=O)N[C@@H](CC2CCCC2)C(=O)Nc2cnn(C3COC3)c2)s1 [Compound 144, (2S)-2-({5-[(1S)-1-[(5-chloro-2-methylpyridin-3-yl)amino]ethyl]thiophen-2-yl}formamido)-3-cyclopentyl-N-[1-(oxetan-3-yl)-1H-pyrazol-4-yl]propanamide]
7 | 1420 | Cc1cc(NC(=O)[C@@H](CCC(C)(C)C)NC(=O)c2ccc([C@H](C)Nc3cc(Cl)cnc3C)s2)ccn1 [Compound 145, (2R)-2-({5-[(1S)-1-[(5-chloro-2-methylpyridin-3-yl)amino]ethyl]thiophen-2-yl}formamido)-5,5-dimethyl-N-(2-methylpyridin-4-yl)hexanamide]
8 | 15 | CC(Nc1cc(Cl)cnc1C(N)=O)c1ccc(C(=O)N[C@@H](CC2CC3CC3C2)C(=O)Nc2cnn(C)c2)s1 (stereo partly drawn) [Compound 146, 3-{[1-(5-{[(1S)-2-{bicyclo[3.1.0]hexan-3-yl}-1-[(1-methyl-1H-pyrazol-4-yl)carbamoyl]ethyl]carbamoyl}thiophen-2-yl)ethyl]amino}-5-chloropyridine-2-carboxamide]
9 | 6 | Cc1ncc(Cl)cc1N[C@@H](C)c1ccc(C(=O)N[C@@H](CC2CCCC2)C(=O)Nc2cnn(CC(F)(F)F)c2)s1 [Compound 147, (2S)-2-({5-[(1S)-1-[(5-chloro-2-methylpyridin-3-yl)amino]ethyl]thiophen-2-yl}formamido)-3-cyclopentyl-N-[1-(2,2,2-trifluoroethyl)-1H-pyrazol-4-yl]propanamide]
10 | 6 | Cc1ncc(Cl)cc1N[C@@H](C)c1ccc(C(=O)N[C@@H](CC2CCCC2)C(=O)Nc2ccc3ncc(C#N)cc3c2)s1 [Compound 148, (2S)-2-({5-[(1S)-1-[(5-chloro-2-methylpyridin-3-yl)amino]ethyl]thiophen-2-yl}formamido)-N-(3-cyanoquinolin-6-yl)-3-cyclopentylpropanamide]
11 | 6 | Cc1ncc(Cl)cc1N[C@@H](C)c1ccc(C(=O)N[C@@H](CC2CCCC2)C(=O)Nc2cnn(C(C)(C)C)c2)s1 [Compound 149, (2S)-N-(1-tert-butyl-1H-pyrazol-4-yl)-2-({5-[(1S)-1-[(5-chloro-2-methylpyridin-3-yl)amino]ethyl]thiophen-2-yl}formamido)-3-cyclopentylpropanamide]
12 | 8 | Cc1ncc(Cl)cc1N[C@@H](C)c1ccc(C(=O)N[C@@H](CC2CCCC2)C(=O)Nc2cc(N)ccn2)s1 [Compound 150, (2S)-N-(4-aminopyridin-2-yl)-2-({5-[(1S)-1-[(5-chloro-2-methylpyridin-3-yl)amino]ethyl]thiophen-2-yl}formamido)-3-cyclopentylpropanamide]
13 | 6 | Cc1ncc(Cl)cc1N[C@@H](C)c1ccc(C(=O)N[C@@H](CC2CCCC2)C(=O)Nc2cnn(CCN(C)C)c2)s1 [Compound 151, (2S)-2-({5-[(1S)-1-[(5-chloro-2-methylpyridin-3-yl)amino]ethyl]thiophen-2-yl}formamido)-3-cyclopentyl-N-{1-[2-(dimethylamino)ethyl]-1H-pyrazol-4-yl}propanamide]
14 | 6 | Cc1ncc(Cl)cc1N[C@@H](C)c1ccc(C(=O)N[C@@H](CC2CCCC2)C(=O)Nc2cnn(C3CCN(C)CC3)c2)s1 [Compound 152, (2S)-2-({5-[(1S)-1-[(5-chloro-2-methylpyridin-3-yl)amino]ethyl]thiophen-2-yl}formamido)-3-cyclopentyl-N-[1-(1-methylpiperidin-4-yl)-1H-pyrazol-4-yl]propanamide]
15 | 5 | Cc1ncc(Cl)cc1N[C@@H](C)c1ccc(C(=O)N[C@@H](CC2CCCC2)C(=O)Nc2ccc(C(N)=O)nc2)s1 [Compound 153, 5-[(2S)-2-({5-[(1S)-1-[(5-chloro-2-methylpyridin-3-yl)amino]ethyl]thiophen-2-yl}formamido)-3-cyclopentylpropanamido]pyridine-2-carboxamide]
16 | 10 | Cc1ncc(Cl)cc1N[C@@H](C)c1ccc(C(=O)N[C@@H](CC2CCCC2)C(=O)Nc2ccn(C)n2)s1 [Compound 154, (2S)-2-({5-[(1S)-1-[(5-chloro-2-methylpyridin-3-yl)amino]ethyl]thiophen-2-yl}formamido)-3-cyclopentyl-N-(1-methyl-1H-pyrazol-3-yl)propanamide]
17 | 7 | Cc1ncc(Cl)cc1N[C@@H](C)c1ccc(C(=O)N[C@@H](CC2CCCC2)C(=O)Nc2cc[nH]n2)s1 [Compound 155, (2S)-2-({5-[(1S)-1-[(5-chloro-2-methylpyridin-3-yl)amino]ethyl]thiophen-2-yl}formamido)-3-cyclopentyl-N-(1H-pyrazol-3-yl)propanamide]
18 | 9 | Cc1cc(NC(=O)[C@H](CCC(C)(C)C)NC(=O)c2ccc([C@H](C)Nc3cc(Cl)cnc3C)s2)ccn1 [Compound 157, (2S)-2-({5-[(1S)-1-[(5-chloro-2-methylpyridin-3-yl)amino]ethyl]thiophen-2-yl}formamido)-5,5-dimethyl-N-(2-methylpyridin-4-yl)hexanamide]
19 | 1000 | COC[C@@H](Nc1cc(Cl)cnc1C)c1ccc(C(=O)N[C@@H](CC2CCCC2)C(=O)NC2CC2)s1 [Compound 158, (2S)-2-({5-[(1R)-1-[(5-chloro-2-methylpyridin-3-yl)amino]-2-methoxyethyl]thiophen-2-yl}formamido)-3-cyclopentyl-N-cyclopropylpropanamide]
